Laboratory results as given in patent publication US20200360405A1, “COMPOSITIONS AND METHODS FOR REDUCING LOCAL AND SYSTEMIC RISKS OF ENVENOMATION” (THE HENRY M. JACKSON FONDATION FOR THE ADVANCEMENT OF …, priority 2017, published 2020).

Assays:
[1] = molecular target: V. russelli crude venom PLA2; assay: Phospholipase A2 activity assay (EnzChek), V. russelli crude venom; assay type: biochemical, Vipera russelli; conditions: for IC50 / PLA2 ≥90% inhibition (concentration), V. russelli venom: 0.2 μg venom, 10 minute time point, Example 1; for Effect on V. russelli venom PLA2 activity (in words): venom pre-incubated 5-10 minutes with increasing concentrations, Example 2
Protocol: (§1) EnzChek® Phospholipase A 2 assay kits were used according to the manufacturer's recommendations. Briefly, equal volumes of venom solutions were incubated with PLA2 substrate and fluorometric analysis was performed over the course of 20 minutes. Venom activity was determined by creating a standard curve based upon PLA2 from honey bee venom.
(§2) For inhibition experiments, 0.4 μg N. kaouthia or 0.2 μg V. russelli venom was pre-incubated with the specified spreading factor inhibitor(s) for 5-10 minutes before adding the reaction to an equal volume of PLA2 substrate. Fluorometric analysis was performed over 20 minutes, with the 10 minute time point values being used to determine the percent inhibition. Background values were subtracted from all samples, and data was normalized to the venom-only controls. Excitation and emission wavelengths for these experiments were 485(20) nm and 528(20) nm, respectively.
(§3) Data are shown as the mean and standard deviation (SD) of at least duplicate readings. The half maximal inhibitory concentration (IC50) values were determined using GraphPad Prism. Table 1 summarizes the inhibitory activity of various spreading factor inhibitors for N. kaouthia and V. russelli crude venom extracts.
(§4) Snake venom samples were incubated with increasing concentrations of sodium aurothiomalate and/or doxycycline for 5-10 minutes prior to assaying the venom hyaluronidase, gelatinase, and PLA2 activities. As observed in Example 1, sodium aurothiomalate inhibited N. kaouthia and V. russeiii venom hyaluronidase activities, whereas doxycycline inhibited the venom gelatinase and PLA2 activities.

[2] = molecular target: N. kaouthia crude venom PLA2; assay: Phospholipase A2 activity assay (EnzChek), N. kaouthia crude venom; assay type: biochemical, Naja naja kaouthia; conditions: for IC50 / PLA2 ≥90% inhibition (concentration), N. kaouthia venom: 0.4 μg venom, 10 minute time point, Example 1; for Effect on N. kaouthia venom PLA2 activity (in words): venom pre-incubated 5-10 minutes with increasing concentrations, Example 2
Protocol: as §1, §2, §3, §4

[3] = tested on: N. kaouthia crude venom hyaluronidase; assay: Hyaluronidase activity assay, N. kaouthia crude venom; assay type: biochemical, Naja naja kaouthia; conditions: for Effect on N. kaouthia venom hyaluronidase activity (in words): venom pre-incubated 5-10 minutes with increasing concentrations, Example 2
Protocol: (§5) Hyaluronidase activity was assessed using the Enzymatic Assay of Hyaluronidase (3.2.1.35) protocol from Sigma Aldrich. Briefly, equal volumes of venom were incubated with 0.03% hyaluronic acid solution (0.03% (w/v) hyaluronic acid in 300 mM sodium phosphate (approximately pH 5.35)) for 1.5 hours at 37° C. A reaction aliquot was then added to a 5-fold volume of acidic albumin solution (24 mM sodium acetate, 70 mM acetic acid, 0.1% BSA adjusted to approximately pH 3.75), allowed to stand for 10 minutes, and then absorbance at 600 nm was measured. Data was converted to percent transmission (% T) and adjusted for background signals. Venom hyaluronidase activities were determined by creating a standard curve with bovine testes hyaluronidase.
(§6) For inhibition experiments, 6.75 μg N. kaouthia or 15 μg V. russelli venom was pre-incubated with the specified spreading factor inhibitor(s) for 5-10 minutes before adding an equal volume of the reaction to the hyaluronic acid solution. Data was converted to % T, adjusted for background signals, and then normalized to the venom-only controls.
as §3, §4

[4] = tested on: V. russelli crude venom hyaluronidase; assay: Hyaluronidase activity assay, V. russelli crude venom; assay type: biochemical, Vipera russelli; conditions: for Effect on V. russelli venom hyaluronidase activity (in words): venom pre-incubated 5-10 minutes with increasing concentrations, Example 2
Protocol: as §5, §6, §3, §4

[5] = tested on: N. kaouthia crude venom gelatinase; assay: Gelatinase activity assay (EnzChek), N. kaouthia crude venom; assay type: biochemical, Naja naja kaouthia
Protocol: (§7) EnzChek® Gelatinase/Collagenase assay kits were used according to the manufacturer's recommendations. Briefly, equal volumes of venom solutions were incubated with 1.0 mg/mL DQ gelatin and fluorometric analysis was performed for at least three hours, using excitation and emission wavelengths of 485(20) nm and 528(20) nm, respectively. Venom activity was determined by creating a standard curve with Clostridium histolyticum collagenase activity.
(§8) For inhibition experiments, 30 μg N. kaouthia or V. russelli venom was pre-incubated with the specified spreading factor inhibitor(s) for 5-10 minutes before adding an equal volume of the reaction to the 1.0 mg/mL DQ gelatin solution. Fluorometric readings were measured over the course of five hours, with the five hour time points being used to determine the percent inhibition. Data was adjusted for background signals and then normalized to the venom-only controls.
as §3, §4

[6] = molecular target: V. russelli crude venom gelatinase; assay: Gelatinase activity assay (EnzChek), V. russelli crude venom; assay type: biochemical, Vipera russelli
Protocol: as §7, §8, §3, §4

[7] = 6.75 μg venom, pre-incubation 5-10 min, Example 1
[8] = 15 μg venom, pre-incubation 5-10 min, Example 1
[9] = asterisk: data obtained according to Example 2, five hour time point
[10] = 30 μg venom, five hour time point, Example 1
[11] = venom pre-incubated 5-10 minutes with increasing concentrations, Example 2

Structure (SMILES)	IC50 [1] [mM]	PLA2 ≥90% inhibition (concentration), V. russelli venom [1] [mM]	IC50 [2] [mM]	PLA2 ≥90% inhibition (concentration), N. kaouthia venom [2] [mM]	Hyaluronidase ≥90% inhibition (concentration), N. kaouthia venom [3, 7]	Effect on N. kaouthia venom hyaluronidase activity (in words) [3]	Hyaluronidase ≥90% inhibition (concentration), V. russelli venom [4, 8]	Effect on V. russelli venom hyaluronidase activity (in words) [4]	Effect on V. russelli venom PLA2 activity (in words) [1]	Effect on N. kaouthia venom PLA2 activity (in words) [2]	other results
Cc1ccc(C(=O)Nc2ccc(S(=O)(=O)O)c3cc(S(=O)(=O)O)cc(S(=O)(=O)O)c23)cc1NC(=O)c1cccc(NC(=O)Nc2cccc(C(=O)Nc3cc(C(=O)Nc4ccc(S(=O)(=O)O)c5cc(S(=O)(=O)O)cc(S(=O)(=O)O)c45)ccc3C)c2)c1 [Suramin]	2.01	12.5	1.51 ± 0.528	12.5							
O=C([O-])CC([S-])C(=O)[O-].[Au+].[Na+].[Na+] (stereo not drawn) [Sodium aurothiomalate, sodium aurothiomalate]					136.30 µM	inhibited	373.25 µM	inhibited	moderate, but statistically significant increase	moderate, but statistically significant increase	IC50 [3, 7]: 42 µM; IC50 [4, 8]: 147 µM; Gelatinase ≥90% inhibition (concentration), N. kaouthia venom [5, 9]: >208 µM; IC50 [5, 9]: 47 ± 30.4 µM
CC(=O)N[C@@H](CS)C(=O)O [N-acetyl-L-cysteine]					4.8 mg/mL	inhibited	6.0 to 9.6 mg/mL	inhibited	consistently enhanced	consistently enhanced	Hyaluronidase IC50, N. kaouthia venom [3, 7]: 4.503 mg/mL; Hyaluronidase IC50, V. russelli venom [4, 8]: ~4.989 mg/mL; Gelatinase IC50, V. russelli venom [6, 10]: 1.87 mg/mL; Gelatinase ≥90% inhibition (concentration), V. russelli venom [6, 10]: 2.31 mg/mL; Effect on V. russelli venom gelatinase activity (in words) [6, 11]: inhibited; Enhancement of PLA2 activities in V. russelli venom ([1]; N-acetyl-L-cysteine alone): 3-4 fold; Gelatinase IC50, N. kaouthia venom [5, 10]: 1.85 mg/mL; Gelatinase ≥90% inhibition (concentration), N. kaouthia venom [5, 10]: 1.32 mg/mL; Effect on N. kaouthia venom gelatinase activity (in words) [5, 11]: inhibited
CC1=C(CC/C(C)=C/CCC2=CC[C@H](C3=CC(=O)O[C@H]3O)O[C@H]2O)C(C)(C)CCC1 [Manoalide]	0.0314	1	0.777	>1							
